US20240158446A1, “CYCLIC COMPOUND HAVING SELECTIVE INHIBITORY ACTION ON KRAS OVER HRAS AND NRAS” (CHUGAI SEIYAKU KABUSHIKI KAISHA, priority 2021, published 2024)
pKd: −log10 of the molar value. Like-named read-outs stand apart in the source and are kept apart here. Where a SMILES comes first, the peptide text is derived from it. Bridges are numbered along the chain shown (N, C = ends). [ ]: non-standard residue; d: D form. The star is where a group is joined. hPhe(3,5-F2-4-CF3) = N[C@@H](CCc1cc(F)c(C(F)(F)F)c(F)c1)C(=O)O; hPhe(3-Cl-4-CF3) = N[C@@H](CCc1ccc(C(F)(F)F)c(Cl)c1)C(=O)O; NPrPhe(4-CF3) = CCCN[C@@H](Cc1ccc(C(F)(F)F)cc1)C(=O)O; NPrPhe(4-Me) = CCCN[C@@H](Cc1ccc(C)cc1)C(=O)O; NMeGly(cPent) = CN[C@H](C(=O)O)C1CCCC1; Pro(4,4-F2) = O=C(O)[C@@H]1CC(F)(F)CN1; NMeD = CN[C@@H](CC(=O)O)C(=O)O; NMeL = CN[C@@H](CC(C)C)C(=O)O; NMeAbu = CC[C@H](NC)C(=O)O; Pip = O=C(O)[C@@H]1CCCCN1; Morpholide = C1CN(*)CCO1; NMeA = CN[C@@H](C)C(=O)O; Ac5c = NC1(C(=O)O)CCCC1; Aze = O=C(O)[C@@H]1CCN1; Sar = CNCC(=O)O

How the values were obtained:
[1] = target: GDP-bound KRAS wild-type protein (Homo sapiens, UniProt P01116); assay: Binding to KRAS by surface plasmon resonance (SPR), Single Cycle Kinetics; conditions: GDP-bound KRAS wild-type protein, read-out: KRAS KD
[2] = target: GDP-bound NRAS wild-type protein (Homo sapiens, UniProt P01111); assay: Binding to NRAS by surface plasmon resonance (SPR), Single Cycle Kinetics; conditions: for NRAS/KRAS (ratio of KD value with respect to GDP-bound NRAS wild-type protein to KD value with respect to KRAS): SPR KD ratio NRAS/KRAS, class symbols
[3] = target: GDP-bound HRAS wild-type protein (Homo sapiens, UniProt P01112); assay: Binding to HRAS by surface plasmon resonance (SPR), Single Cycle Kinetics; conditions: for HRAS/KRAS (ratio of KD value with respect to GDP-bound HRAS wild-type protein to KD value with respect to KRAS): SPR KD ratio HRAS/KRAS, class symbols
[4] = SPR Single Cycle Kinetics, 1:1 binding model
[5] = SPR, Single Cycle Kinetics, 1:1 binding model
[6] = SPR, GDP-bound NRAS wild-type protein vs GDP-bound KRAS wild-type protein, KD ratio class
[7] = SPR, GDP-bound HRAS wild-type protein vs GDP-bound KRAS wild-type protein, KD ratio class
[8] = SPR, GDP-bound NRAS wild-type protein vs GDP-bound KRAS wild-type protein
[9] = SPR, GDP-bound HRAS wild-type protein vs GDP-bound KRAS wild-type protein

GDP-bound KRAS wild-type protein, sequence (P01116 whole entry): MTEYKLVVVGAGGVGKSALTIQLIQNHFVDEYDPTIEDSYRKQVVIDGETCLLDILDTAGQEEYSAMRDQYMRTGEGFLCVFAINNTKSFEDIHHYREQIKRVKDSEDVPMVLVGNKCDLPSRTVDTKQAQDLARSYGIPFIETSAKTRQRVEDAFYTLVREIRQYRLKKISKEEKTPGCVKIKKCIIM
GDP-bound NRAS wild-type protein, sequence (P01111 whole entry): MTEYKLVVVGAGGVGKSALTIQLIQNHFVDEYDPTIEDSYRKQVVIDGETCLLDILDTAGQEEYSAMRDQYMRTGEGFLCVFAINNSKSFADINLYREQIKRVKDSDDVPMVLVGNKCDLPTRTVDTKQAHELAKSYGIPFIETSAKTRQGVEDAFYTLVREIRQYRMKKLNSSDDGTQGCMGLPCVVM
GDP-bound HRAS wild-type protein, sequence (P01112 whole entry): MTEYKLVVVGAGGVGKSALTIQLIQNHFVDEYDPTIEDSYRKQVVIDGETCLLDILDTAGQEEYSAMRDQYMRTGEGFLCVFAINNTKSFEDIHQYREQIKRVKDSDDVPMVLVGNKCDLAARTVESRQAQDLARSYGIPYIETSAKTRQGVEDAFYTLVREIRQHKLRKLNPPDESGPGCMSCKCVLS

| Structure (SMILES) | pKd [1, 4] | NRAS/KRAS (ratio of KD value with respect to GDP-bound NRAS wild-type protein to KD value with respect to KRAS) [2] | HRAS/KRAS (ratio of KD value with respect to GDP-bound HRAS wild-type protein to KD value with respect to KRAS) [3] | NRAS/KRAS (ratio of KD value for NRAS to KD value for KRAS) [2, 8] | HRAS/KRAS (ratio of KD value for HRAS to KD value for KRAS) [3, 9] | also measured |
| --- | --- | --- | --- | --- | --- | --- |
| CCC(CC)[C@H]1C(=O)N(C)[C@H](C(=O)N(C)C)CC(=O)N(C)[C@@H](COC)C(=O)N[C@@H]([C@@H](C)CC)C(=O)N(C)CC(=O)N(C)[C@H]2C/C=C\CCN(C2=O)[C@@H](Cc2ccc(C(F)(F)F)cc2)C(=O)N(C)CC(=O)N[C@@H](CCc2cc(F)c(C(F)(F)F)c(F)c2)C(=O)N2CCOC[C@H]2C(=O)NC2(CC(C)(C)C2)C(=O)N1C [PP2917] | 8.85 | AA (a compound having 20 or more is denoted as AA) | A (a compound having 10 or more and less than 20 is denoted as A) | – | – | – |
| CCO[C@@H]1C[C@H]2C(=O)NC3(CC(C)(C)C3)C(=O)N(C)[C@@H](C3CCCC3)C(=O)N(C)[C@H](C(=O)N(C)CC)CC(=O)N(C)[C@@H](CC)C(=O)N[C@@H]([C@@H](C)CC)C(=O)N(C)CC(=O)N(C)[C@H]3C/C=C\CCN(C3=O)[C@@H](Cc3ccc(C(F)(F)F)cc3)C(=O)N(C)CC(=O)N[C@@H](CCc3cc(F)c(C(F)(F)F)c(F)c3)C(=O)N2C1 [PP1579] | – | – | – | – | – | pKd [1, 5]: 10.06; NRAS/KRAS (ratio of KD value for NRAS to KD value for KRAS) [2, 6]: A (a compound having 10 or more and less than 20 is denoted as A); HRAS/KRAS (ratio of KD value for HRAS to KD value for KRAS) [3, 7]: B (a compound having 3 or more and less than 10 is denoted as B) |
| CCC[C@H]1C(=O)N[C@@H]([C@@H](C)CC)C(=O)N(C)CC(=O)N(C)[C@H]2C/C=C\CCN(C2=O)[C@@H](Cc2ccc(C(F)(F)F)cc2)C(=O)N(C)CC(=O)N[C@@H](CCc2ccc(C(F)(F)F)c(OC)c2)C(=O)N2CCOC[C@H]2C(=O)NC2(CC(C)(C)C2)C(=O)N(C)[C@@H](C(CC)CC)C(=O)N(C)[C@H](C(=O)N(C)C)CC(=O)N1C [PP2935] | 8.82 | A (a compound having 10 or more and less than 20 is denoted as A) | A (a compound having 10 or more and less than 20 is denoted as A) | – | – | – |
| CC[C@H](C)[C@@H]1NC(=O)[C@H](CC2CC2)N(C)C(=O)C[C@@H](C(=O)N(C)CC)N(C)C(=O)[C@H](C2CCCC2)N(C)C(=O)C2(CC(C)(C)C2)NC(=O)[C@@H]2C[C@@H](F)CN2C(=O)[C@H](CCc2cc(F)c(C(F)(F)F)c(F)c2)NC(=O)CN(C)C(=O)[C@H](Cc2ccc(C(F)(F)F)cc2)N2CC/C=C\C[C@@H](C2=O)N(C)C(=O)CN(C)C1=O [PP1570] | – | – | – | – | – | pKd [1, 5]: 10.29; NRAS/KRAS (ratio of KD value for NRAS to KD value for KRAS) [2, 6]: AA (a compound having 20 or more is denoted as AA); HRAS/KRAS (ratio of KD value for HRAS to KD value for KRAS) [3, 7]: A (a compound having 10 or more and less than 20 is denoted as A) |
| CCO[C@@H]1C[C@H]2C(=O)NC3(CCC3)C(=O)N(C)[C@@H](C3CCCC3)C(=O)N(C)[C@H](C(=O)N3CCOCC3)CC(=O)N(C)[C@@H](Cc3ccccc3F)C(=O)N[C@@H]([C@@H](C)CC)C(=O)N(C)CC(=O)N(C)[C@H]3CCCCCN(C3=O)[C@@H](Cc3ccc(C(F)(F)F)cc3)C(=O)N(C)CC(=O)N[C@@H](CCc3cc(F)c(C(F)(F)F)c(F)c3)C(=O)N2C1 [PP0926] | – | – | – | B (a compound having 3 or more and less than 10 is denoted as B) | B (a compound having 3 or more and less than 10 is denoted as B) | pKd ([1]; SPR, Single Cycle Kinetics): 8.62 |
| CCO[C@@H]1C[C@H]2C(=O)NC3(CCC3)C(=O)N(C)[C@@H](C3CCCC3)C(=O)N(C)[C@H](C(=O)N(C)CC)CC(=O)N(C)[C@@H](CC3CCC3)C(=O)N[C@@H]([C@@H](C)CC)C(=O)N(C)CC(=O)N(C)[C@H]3C/C=C\CCN(C3=O)[C@@H](Cc3ccc(C(F)(F)F)cc3)C(=O)N(C)CC(=O)N[C@@H](CCc3ccc(C(F)(F)F)c(OC)c3)C(=O)N2C1 [PP2825] | 9.92 | A (a compound having 10 or more and less than 20 is denoted as A) | B (a compound having 3 or more and less than 10 is denoted as B) | – | – | – |
| CCCN1C(=O)CN(C)C(=O)CN(C)C(=O)[C@H]([C@@H](C)CC)NC(=O)[C@H](CC)N(C)C(=O)C[C@@H](C(=O)N2CCOCC2)N(C)C(=O)[C@H](C2CCCC2)N(C)C(=O)C2(CCCC2)NC(=O)[C@@H]2CC(F)(F)CN2C(=O)[C@H](CCc2ccc(C(F)(F)F)c(Cl)c2)NC(=O)CN(C)C(=O)[C@@H]1Cc1ccc(C(F)(F)F)cc1 [PP0202] ([NMeAbu]I[Sar][Sar][NPrPhe(4-CF3)][Sar][hPhe(3-Cl-4-CF3)][Pro(4,4-F2)][Ac5c][NMeGly(cPent)][NMeD]-Morpholide; lactam N-11) | 10.12 | – | – | B (a compound having 3 or more and less than 10 is denoted as B) | C (A compound having a KD ratio of 0.1 or more and less than 3 is denoted as C) | – |
| CCO[C@@H]1C[C@H]2C(=O)NC3(CC(C)(C)C3)C(=O)N(C)[C@@H](C3CCCC3)C(=O)N(C)[C@H](C(=O)N(C)CC)CC(=O)N(C)[C@@H](CC(C)C)C(=O)N[C@@H]([C@@H](C)CC)C(=O)N(C)CC(=O)N(C)[C@H]3C/C=C\CCN(C3=O)[C@@H](Cc3ccc(C(F)F)cc3)C(=O)N(C)CC(=O)N[C@@H](CCc3ccc(Cl)c(Cl)c3)C(=O)N2C1 [PP2827] | 9.42 | A (a compound having 10 or more and less than 20 is denoted as A) | B (a compound having 3 or more and less than 10 is denoted as B) | – | – | – |
| CCCN1C(=O)[C@@H]2CCN2C(=O)CN(C)C(=O)[C@H]([C@@H](C)CC)NC(=O)[C@H](CC(C)C)N(C)C(=O)C[C@@H](C(=O)N(C)C)NC(=O)[C@H](C2CCCC2)N(C)C(=O)C2(CCCC2)NC(=O)[C@@H]2CC(F)(F)CN2C(=O)[C@H](CCc2ccc(C(F)(F)F)c(Cl)c2)NC(=O)CN(C)C(=O)[C@@H]1Cc1ccc(C(F)(F)F)cc1 [PP0387] ([NMeL]I[Sar][Aze][NPrPhe(4-CF3)][Sar][hPhe(3-Cl-4-CF3)][Pro(4,4-F2)][Ac5c][NMeGly(cPent)]D-NMe2; lactam N-11) | 9.27 | – | – | C (A compound having a KD ratio of 0.1 or more and less than 3 is denoted as C) | B (a compound having 3 or more and less than 10 is denoted as B) | – |
| CCCN1C(=O)[C@@H]2CCN2C(=O)[C@H](C)N(C)C(=O)[C@H]([C@@H](C)CC)NC(=O)[C@H](CC(C)C)N(C)C(=O)C[C@@H](C(=O)N2CCOCC2)N(C)C(=O)[C@H](C2CCCC2)N(C)C(=O)C2(CCCC2)NC(=O)[C@@H]2CCCN2C(=O)[C@H](CCc2ccc(C(F)(F)F)c(Cl)c2)NC(=O)CN(C)C(=O)[C@@H]1Cc1ccc(C)cc1 [PP0052] ([NMeL]I[NMeA][Aze][NPrPhe(4-Me)][Sar][hPhe(3-Cl-4-CF3)]P[Ac5c][NMeGly(cPent)][NMeD]-Morpholide; lactam N-11) | 9.92 | – | – | C (A compound having a KD ratio of 0.1 or more and less than 3 is denoted as C) | B (a compound having 3 or more and less than 10 is denoted as B) | – |
| CCC[C@H]1C(=O)N[C@@H]([C@@H](C)CC)C(=O)N(C)CC(=O)N(C)[C@H]2C/C=C\CCN(C2=O)[C@@H](Cc2ccc(C(F)(F)F)cc2)C(=O)N(C)CC(=O)N[C@@H](CCc2cc(F)c(C(F)F)c(F)c2)C(=O)N2C[C@H](OCC)C[C@H]2C(=O)NC2(CC(C)(C)C2)C(=O)N(C)[C@@H](C(CC)CC)C(=O)N(C)[C@H](C(=O)N(C)C)CC(=O)N1C [PP2781] | 8.82 | AA (a compound having 20 or more is denoted as AA) | A (a compound having 10 or more and less than 20 is denoted as A) | – | – | – |
| CCCN1C(=O)CN(C)C(=O)CN(C)C(=O)[C@H]([C@@H](C)CC)NC(=O)[C@H](CC(C)C)N(C)C(=O)C[C@@H](C(=O)N2CCOCC2)N(C)C(=O)[C@H](C2CCCC2)N(C)C(=O)C2(CCCC2)NC(=O)[C@@H]2CCCCN2C(=O)[C@H](CCc2ccc(C(F)(F)F)c(Cl)c2)NC(=O)CN(C)C(=O)[C@@H]1Cc1ccc(C(F)(F)F)cc1 [PP0263] ([NMeL]I[Sar][Sar][NPrPhe(4-CF3)][Sar][hPhe(3-Cl-4-CF3)][Pip][Ac5c][NMeGly(cPent)][NMeD]-Morpholide; lactam N-11) | 9.33 | – | – | B (a compound having 3 or more and less than 10 is denoted as B) | C (A compound having a KD ratio of 0.1 or more and less than 3 is denoted as C) | – |
| CCCN1C(=O)[C@@H]2CCN2C(=O)CN(C)C(=O)[C@H]([C@@H](C)CC)NC(=O)[C@H](CC(C)C)N(C)C(=O)C[C@@H](C(=O)N2CCOCC2)N(C)C(=O)[C@H](C2CCCC2)N(C)C(=O)C2(CCCC2)NC(=O)[C@@H]2CCCN2C(=O)[C@H](CCc2cc(F)c(C(F)(F)F)c(F)c2)NC(=O)CN(C)C(=O)[C@@H]1Cc1ccc(C(F)(F)F)cc1 [PP0789] ([NMeL]I[Sar][Aze][NPrPhe(4-CF3)][Sar][hPhe(3,5-F2-4-CF3)]P[Ac5c][NMeGly(cPent)][NMeD]-Morpholide; lactam N-11) | 9.92 | – | – | – | – | NRAS/KRAS (ratio of KD value with respect to NRAS to KD value with respect to KRAS) [2, 8]: C (A compound having a KD ratio of 0.1 or more and less than 3 is denoted as C); HRAS/KRAS (ratio of KD value with respect to HRAS to KD value with respect to KRAS) [3, 9]: B (a compound having 3 or more and less than 10 is denoted as B) |
